Biological target: T1, human PTH1 receptor (Homo sapiens, UniProt Q03431)
T1 sequence (Q03431 27-593): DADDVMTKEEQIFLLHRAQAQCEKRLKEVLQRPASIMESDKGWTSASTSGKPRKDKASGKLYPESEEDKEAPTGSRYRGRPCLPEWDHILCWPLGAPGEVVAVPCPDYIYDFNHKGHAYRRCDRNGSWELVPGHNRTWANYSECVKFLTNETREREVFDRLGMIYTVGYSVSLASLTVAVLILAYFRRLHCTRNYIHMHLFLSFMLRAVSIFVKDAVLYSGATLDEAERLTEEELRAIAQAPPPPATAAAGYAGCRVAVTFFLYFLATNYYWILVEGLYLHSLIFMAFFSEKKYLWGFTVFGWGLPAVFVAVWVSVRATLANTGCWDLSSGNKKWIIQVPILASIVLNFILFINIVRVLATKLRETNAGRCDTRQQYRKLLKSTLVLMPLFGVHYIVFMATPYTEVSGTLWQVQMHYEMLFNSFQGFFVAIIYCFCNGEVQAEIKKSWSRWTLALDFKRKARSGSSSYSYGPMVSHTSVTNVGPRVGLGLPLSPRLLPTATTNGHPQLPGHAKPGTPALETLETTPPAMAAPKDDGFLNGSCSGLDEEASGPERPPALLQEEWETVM
Assay: In vitro cAMP signal activity in HKRK-B7 cells (LLC-PK1 cells overexpressing the human PTH1 receptor)
Assay type: cell-based
Conditions: HKRK-B7 cells; compound at 1×10^−3 M; cAMP produced as percentage of that produced by hPTH(1-34) at 100 nM

| Compound | cAMP production activity (%) |
| --- | --- |
| Cc1cc(C(=O)N2CCC(O)(CF)CC2)cc(C)c1/C=C/S(=O)(=O)N1CCC2(CC1)N=C(C1CCC(C)CC1)NC2=O (stereo not drawn) [Compound 1000, 8-{(E)-2-[4-(4-fluoromethyl-4-hydroxy-piperidine-1-carbonyl)-2,6-dimethyl-phenyl]-ethenesulfonyl}-2-(4-methyl-cyclohexyl)-1,3,8-triaza-spiro[4.5]dec-1-en-4-one] | 86% |
| Cc1cc(C(=O)N2CCCO2)cc(C)c1/C=C/S(=O)(=O)N1CCC2(CC1)N=C(C1CCC(C)CC1)NC2=O (stereo not drawn) [Compound 1001, 8-{(E)-2-[4-(isoxazolidine-2-carbonyl)-2,6-dimethyl-phenyl]-ethenesulfonyl}-2-(4-methyl-cyclohexyl)-1,3,8-triaza-spiro[4.5]dec-1-en-4-one] | 64% |
| Cc1cc(C(=O)N2CCS(=O)(=O)CC2)cc(C)c1/C=C/S(=O)(=O)N1CCC2(CC1)N=C(C1CCC(C)CC1)NC2=O (stereo not drawn) [Compound 1002, 8-{(E)-2-[4-(1,1-dioxo-1λ^6-thiomorpholine-4-carbonyl)-2,6-dimethyl-phenyl]-ethenesulfonyl}-2-(4-methyl-cyclohexyl)-1,3,8-triaza-spiro[4.5]dec-1-en-4-one] | 50% |
| Cc1cc(C(=O)N2CCOC2=O)cc(C)c1/C=C/S(=O)(=O)N1CCC2(CC1)N=C(C1CCCCC1)NC2=O [Compound 1007, 2-Cyclohexyl-8-{(E)-2-[2,6-dimethyl-4-(2-oxo-oxazolidine-3-carbonyl)-phenyl]-ethenesulfonyl}-1,3,8-triaza-spiro[4.5]dec-1-en-4-one] | 20% |
| CCCCC1CCC(C2=NC3(CCN(S(=O)(=O)/C=C/c4c(C)cc(C(=O)N5CCC(OCCO)CC5)cc4C)CC3)C(=O)N2)CC1 (stereo not drawn) [Compound 1008, 2-(4-Butyl-cyclohexyl)-8-((E)-2-{4-[4-(2-hydroxy-ethoxy)-piperidine-1-carbonyl]-2,6-dimethyl-phenyl}-ethenesulfonyl)-1,3,8-triaza-spiro[4.5]dec-1-en-4-one] | 73% |
| CCCCC1CCC(C2=NC3(CCN(S(=O)(=O)/C=C/c4c(C)cc(C(=O)N5CCC(OCCOCCO)CC5)cc4C)CC3)C(=O)N2)CC1 (stereo not drawn) [Compound 1009, 2-(4-butyl-cyclohexyl)-8-[(E)-2-(4-{4-[2-(2-hydroxy-ethoxy)-ethoxy]-piperidine-1-carbonyl}-2,6-dimethyl-phenyl)-ethenesulfonyl]-1,3,8-triaza-spiro[4.5]dec-1-en-4-one] | 70% |
| Cc1cc(C(=O)N2CCC(OC[C@H](O)CO)CC2)cc(C)c1/C=C/S(=O)(=O)N1CCC2(CC1)N=C(CCCCCCCCC(F)(F)F)NC2=O [Compound 1010, 8-((E)-2-{4-[4-((R)-2,3-Dihydroxy-propoxy)-piperidine-1-carbonyl]-2,6-dimethyl-phenyl}-ethenesulfonyl)-2-(9,9,9-trifluoro-nonyl)-1,3,8-triaza-spiro[4.5]dec-1-en-4-one] | 96% |
| Cc1cc(N(C)C(N)=O)cc(C)c1/C=C/S(=O)(=O)N1CCC2(CC1)N=C(c1cccc(OCCCC(F)(F)F)c1)NC2=O [Compound 1019, 1-[3,5-dimethyl-4-((E)-2-{4-oxo-2-[3-(4,4,4-trifluoro-butoxy)-phenyl]-1,3,8-triaza-spiro[4.5]dec-1-ene-8-sulfonyl}-vinyl)-phenyl]-1-methyl-urea] | 72% |

Further lines, results first:

| cAMP production activity (%) | Compound |
| --- | --- |
| 67% | Cc1cc(C(=O)N(C)C)cc(C)c1/C=C/S(=O)(=O)N1CCC2(CC1)N=C(C1CCC(C)CC1)NC2=O (stereo not drawn) [Compound 1003, 3,5,N,N-tetramethyl-4-{(E)-2-[2-(4-methyl-cyclohexyl)-4-oxo-1,3,8-triaza-spiro[4.5]dec-1-ene-8-sulfonyl]-vinyl}-benzamide] |
| 52% | Cc1cc(C(=O)N2CCC(O)(C(F)(F)F)CC2)cc(C)c1/C=C/S(=O)(=O)N1CCC2(CC1)N=C(C1CCCCC1)NC2=O [Compound 1006, 2-Cyclohexyl-8-{(E)-2-[4-(4-hydroxy-4-trifluoromethyl-piperidine-1-carbonyl)-2,6-dimethyl-phenyl]-ethenesulfonyl}-1,3,8-triaza-spiro[4.5]dec-1-en-4-one] |
| 17% | Cc1cc(N(C)C(=O)CN)cc(C)c1/C=C/S(=O)(=O)N1CCC2(CC1)N=C(c1cccc(OC(F)(F)F)c1)NC2=O [Compound 1011, 2-Amino-N-(3,5-dimethyl-4-{(E)-2-[4-oxo-2-(3-trifluoromethoxy-phenyl)-1,3,8-triaza-spiro[4.5]dec-1-ene-8-sulfonyl]-vinyl}-phenyl)-N-methyl-acetamide] |
| 87% | Cc1cc(N(C)C(=O)OCCO)cc(C)c1/C=C/S(=O)(=O)N1CCC2(CC1)N=C(c1cccc(OC(F)(F)F)c1)NC2=O [Compound 1012, (3,5-Dimethyl-4-{(E)-2-[4-oxo-2-(3-trifluoromethoxy-phenyl)-1,3,8-triaza-spiro[4.5]dec-1-ene-8-sulfonyl]-vinyl}-phenyl)-methyl-carbamic acid 2-hydroxy-ethyl ester] |
| 48% | Cc1cc(N(C)C(=O)N(C)C)cc(C)c1/C=C/S(=O)(=O)N1CCC2(CC1)N=C(c1cccc(OC(F)(F)F)c1)NC2=O [Compound 1013, 1-(3,5-Dimethyl-4-{(E)-2-[4-oxo-2-(3-trifluoromethoxy-phenyl)-1,3,8-triaza-spiro[4.5]dec-1-ene-8-sulfonyl]-vinyl}-phenyl)-1,3,3-trimethyl-urea] |
| 84% | CNC(=O)N(C)c1cc(C)c(/C=C/S(=O)(=O)N2CCC3(CC2)N=C(c2cccc(OC(F)(F)F)c2)NC3=O)c(C)c1 [Compound 1014, 1-(3,5-dimethyl-4-{(E)-2-[4-oxo-2-(3-trifluoromethoxy-phenyl)-1,3,8-triaza-spiro[4.5]dec-1-ene-8-sulfonyl]-vinyl}-phenyl)-1,3-dimethyl-urea] |
| 83% | Cc1cc(N(C)C(N)=O)cc(C)c1/C=C/S(=O)(=O)N1CCC2(CC1)N=C(c1cccc(OC(F)(F)F)c1)NC2=O [Compound 1015, 1-(3,5-dimethyl-4-{(E)-2-[4-oxo-2-(3-trifluoromethoxy-phenyl)-1,3,8-triaza-spiro[4.5]dec-1-ene-8-sulfonyl]-vinyl}-phenyl)-1-methyl-urea] |
| 92% | CNc1cc(C)c(/C=C/S(=O)(=O)N2CCC3(CC2)N=C(c2cccc(SC(F)(F)F)c2)NC3=O)c(C)c1 [Compound 1016, 8-[(E)-2-(2,6-Dimethyl-4-methylamino-phenyl)-ethenesulfonyl]-2-(3-trifluoromethylsulfanyl-phenyl)-1,3,8-triaza-spiro[4.5]dec-1-en-4-one] |
| 101% | Cc1cc(N(C)C(N)=O)cc(C)c1/C=C/S(=O)(=O)N1CCC2(CC1)N=C(c1ccc(F)c(C(F)(F)F)c1)NC2=O [Compound 1017, 1-(4-{(E)-2-[2-(4-Fluoro-3-trifluoromethyl-phenyl)-4-oxo-1,3,8-triaza-spiro[4.5]dec-1-ene-8-sulfonyl]-vinyl}-3,5-dimethyl-phenyl)-1-methyl-urea] |
| 109% | Cc1cc(N(C)C(N)=O)cc(C)c1/C=C/S(=O)(=O)N1CCC2(CC1)N=C(c1cccc(OC(F)(F)C(F)F)c1)NC2=O [Compound 1018, 1-[3,5-dimethyl-4-((E)-2-{4-oxo-2-[3-(1,1,2,2-tetrafluoro-ethoxy)-phenyl]-1,3,8-triaza-spiro[4.5]dec-1-ene-8-sulfonyl}-vinyl)-phenyl]-1-methyl-urea] |
